Experimental data from US6656914B2, “Method for treating tumors caused by APC gene mutation with anthocyanins and cyanidin” (Board of Trustees of Michigan State University, priority 2000, dated 2003).
Entries after “also recorded” stand apart in the source; their conditions may differ. Marks after values point to notes of the source that are not given here.

Test system: intestinal adenomas in Min mice (Apc^min/Apc^+)
Assay: Intestinal tumorigenesis in Min mice fed treatment diets for 10 weeks (adenoma number and size)
Type: in vivo
Details: for Adenoma numbers in the small intestine, Distal / Adenoma numbers in the small intestine, Middle / Adenoma numbers in the small intestine, Proximal / Total Adenoma Diameter in the small intestine / Adenoma numbers in the small intestine, Total: 800 ppm anthocyanins; for Adenoma numbers in the small intestine, Distal / Adenoma numbers in the small intestine, Middle / Adenoma numbers in the small intestine, Proximal / Total Adenoma Diameter in the small intestine: 200 ppm cyanidin or 200 ppm sulindac in drinking water, or 20% cherries diet; for Adenoma numbers in the small intestine, Distal / Adenoma numbers in the small intestine, Middle / Adenoma numbers in the small intestine, Proximal / Total Adenoma Diameter in the small intestine / Adenoma numbers in the small intestine, Total / Colon Total adenoma Volume / Cecal Total adenoma Volume / Cecum adenoma Number / Colon adenoma Number / Mean Adenoma Diameter in the small intestine / Average number of solid tumors, Cecum / Average number of solid tumors, Colon / Average number of solid tumors, Total (cecum and colon): mean ± SEM; for Adenoma numbers in the small intestine, Total: 200 ppm cyanidin or 200 ppm sulindac in drinking water, or 20% freeze-dried cherries in diet; for Colon Total adenoma Volume / Cecal Total adenoma Volume / Cecum adenoma Number / Colon adenoma Number / Mean Adenoma Diameter in the small intestine / Average number of solid tumors, Cecum / Average number of solid tumors, Colon / Average number of solid tumors, Total (cecum and colon): same treatments; for Cecal Total adenoma Volume / Cecum adenoma Number / Colon adenoma Number / Mean Adenoma Diameter in the small intestine: different superscripts = significant differences (P < 0.05); for Average number of solid tumors, Cecum / Average number of solid tumors, Colon / Average number of solid tumors, Total (cecum and colon): three-dimensional raised tumors
Excerpt: Forty-eight Min mice were randomly assigned to five treatment groups at 4-5 weeks of age and fed treatment diets for 10 weeks. The treatments were:
1) Modified AIN-93G control diet, 2) The control diet +800 ppm anthocyanins in drinking water, 3) The control diet+200 ppm cyanidin in drinking water, 4) The control diet+200 ppm sulindac in drinking water, 5) Modified control diet containing 20% freeze dried pitted tart cherries. Only mean diameter, not the number of adenomas in the small intestine was reduced by sulindac, whereas diameter was increased by cherry diet (p<0.05).
All research was conducted with approval of the Michigan State University, East Lansing, Mich., All-University Committee on animal use and care. Mice were housed in MSU Laboratory, Animal Resources maintained facilities. A colony of Min mice was maintained by crossing male Min mice (Apc^min/Apc^+) with normal adult C57BL/6J female mice. Mice were housed in a temperature and humidity-controlled room (20-22° C., 70%) with a 12-h light/dark cycle. At three weeks of age, mice were bled from the dorsal pedal vein (30 μL) for genotyping analysis to identify Apc^min/Apc^+ using polymerase chain reaction (PCR) analysis and subsequent gel electrophoresis analysis. Forty-eight Min mice identified were randomly assigned to five treatment groups (7 to 11 per treatment) at 4 or 5 weeks of age and fed treatment diets for 10 weeks. The treatments were:
1) Modified AIN-93G control diet and 50 ppm ascorbic acid in drinking water (n=11)
2) The control diet+50 ppm ascorbic acid and 800 ppm anthocyanins in drinking water (n=9)
3) The control diet+50 ppm ascorbic acid and 200 ppm cyanidin in drinking water (n=7)
4) The control diet+50 ppm ascorbic acid and 200 ppm sulindac in drinking water (n=10)
5) 20% freeze-dried cherries+50 ppm ascorbic acid in drinking water (n=11).
Ingredient composition of diets is in Table 1. All diets contained 22% protein, 15% fat (soybean oil) and 5% cellulose contents. Distilled water was used for drinking water. Ascorbic acid was added to provide low pH for keeping anthocyanins and cyanidin in solution since they are stable only under pH 7. The concentration of sulindac (200 ppm) was based on the effective range found from most studies that have shown sulindac to reduce intestinal neoplasia. Cyanidin concentration (200 ppm) was matched to that of sulindac. Anthocyanins was tested at the level four times the cyanidin concentration because anthocyanins are the glycosylated cyanidin and the level (800 ppm) has equivalent amount of flavylium cation. Red tart pitted cherries (Peerson Farms, Inc., Shelby, Mich.) were frozen, freeze-dried, ground using plate grinder, and then screened to pass a 1 mm screen before they were incorporated into the diet at the expense of sucrose, cornstarch and dyetrose. One hundred grams of the experimental diet included 23 g of ground cherries to make 20% of cherries in the diet because dry matter of cherries was 75%, whereas that of AIN-93G diet was 91%.
Body weight was measured once a week until mice were sacrificed at the end of treatment period. Upon sacrifice by carbon dioxide asphyxiation, the liver was removed and frozen immediately for confirmatory PCR analysis. The entire small intestine, cecum, and colon were removed from each mouse to determine the number and size of adenomas. The tissues were separated into the following sections: proximal one-third of small intestine, middle one-third of small intestine, distal one-third of small intestine, cecum, and colon. All intestinal sections were opened longitudinally, rinsed thoroughly with water, fixed overnight in 10% neutral-buffered formalin, and then stained with 0.2% methylene blue. Tumor number and size (diameter for flat tumors or volume in the case of three-dimensional tumors) were determined in each intestinal segment on 1 mm grid transparency by direct counting with the aid of a dissecting microscope. […]

Row | Compound | Adenoma numbers in the small intestine, Distal | Adenoma numbers in the small intestine, Middle | Adenoma numbers in the small intestine, Proximal | Total Adenoma Diameter in the small intestine | Adenoma numbers in the small intestine, Total | Colon Total adenoma Volume | Cecal Total adenoma Volume | Cecum adenoma Number | Colon adenoma Number | Mean Adenoma Diameter in the small intestine | Average number of solid tumors, Cecum | Average number of solid tumors, Colon | Average number of solid tumors, Total (cecum and colon) | Intestinal site of inhibited tumorigenesis (conclusion in words) | Number of cecal adenomas compared to controls (in words) | Size (volume) of adenomas in the cecum (in words) | Trend in number of adenoma in the proximal section of the small intestine (in words) (P=0.05) | Number of colonic adenomas (in words) (p<0.05) | Mean diameter (size) of adenoma in the small intestine, effect compared to control diet (in words) (p<0.05, listed as sulindac) | Number of colonic adenomas (in words) (p<0.05, listed as sulindac)
1 | Oc1cc(O)c2cc(O)c(-c3ccc(O)c(O)c3)[o+]c2c1 [Cyanidin] | 20.0 ± 7.8 | 15.7 ± 5.8 | 15.6 ± 3.5 | 67.4 ± 22.0 mm | 51.3 ± 15.8 | 3.51 ± 2.24 mm^3 | 0.56 ± 0.96^b mm^3 | 0.57 ± 0.63^b | 3.71 ± 0.80^ab | 1.25 ± 0.11^b mm | 0.00 ± 0.13 | 0.14 ± 0.21 | 0.14 ± 0.25 |  |  |  |  |  |  | 
2 | CC1=C(CC(=O)O)c2cc(F)ccc2/C1=C\c1ccc([S+](C)[O-])cc1 (stereo not drawn) [Sulindac, sulindac] | 10.0 ± 6.5 | 9.1 ± 4.9 | 5.6 ± 2.9 | 23.5 ± 18.4 mm | 24.7 ± 13.2 | 3.35 ± 1.88 mm^3 | 4.00 ± 0.81^a mm^3 | 4.00 ± 0.53^c | 5.30 ± 0.67^b | 0.93 ± 0.10^a mm | 0.20 ± 0.11 | 0.20 ± 0.17 | 0.40 ± 0.21 | inhibits small intestinal tumorigenesis | significantly more cecal adenomas than controls; also recorded: significantly higher number of cecal adenomas; also recorded: increased the number of adenomas in cecum and colon | increased | reduced | twice as many adenomas as those of mice in cherry diet | significantly reduced the size of adenomas in small intestine | greatest number of colonic adenomas; also recorded: increased the number of adenomas in cecum and colon
